Measurements: ChEMBL document CHEMBL1201862, “PubChem BioAssay data set” (2004)
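Each compound was tested at five concentrations against cells in 96-well plates for 48 hours. At the GI50, growth is halved.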 Active and inactive are the calls of the source. No stated cut-off is given here; in the data, active = GI50 up to about 1.1 µM and inactive = higher.

Key:
Experiment in all cases: NCI anticancer screen, dose series, 48 h
[1] = tested on: DMS-114
[2] = tested on: DLD-1
[3] = tested on: HOP-18
[4] = tested on: SNB-78
[5] = tested on: KM-20L2
[6] = tested on: RXF 631
[7] = tested on: M19-MEL
[8] = tested on: XF498
[9] = tested on: DMS-273

Row | Structure (SMILES) | GI50 [1] | GI50 [2] | GI50 [3] | GI50 [4] | GI50 [5] | GI50 [6] | GI50 [7] | GI50 [8] | GI50 [9]
1 | COc1cc2c(c(O)c1C)C(=O)CC(c1ccccc1)O2 (stereo unspecified) | 50.7 µM (inactive) | 55.2 µM (inactive) | 61 µM (inactive) | 55.7 µM (inactive) | 15.1 µM (inactive) | 41.4 µM (inactive) | 45.8 µM (inactive) |  | 
2 | O=C(O)C1=C(Cl)c2ccccc2S1(=O)=O | > 100 µM (inactive) | > 100 µM (inactive) |  | > 100 µM (inactive) | > 100 µM (inactive) | > 100 µM (inactive) | > 100 µM (inactive) | > 100 µM (inactive) | 
3 | N#CCCN(CCC#N)c1ccc(/C=C2\N=C(c3cc([N+](=O)[O-])ccc3Cl)OC2=O)cc1 | 25.4 µM (inactive) |  |  |  | > 100 µM (inactive) |  | 20.5 µM (inactive) | 35.4 µM (inactive) | > 100 µM (inactive)
4 | O=C1C(C2=[N+]([O-])c3ccccc3C2=O)=[N+]([O-])c2ccccc21 | 17.9 µM (inactive) | 23.9 µM (inactive) | 20.2 µM (inactive) | 38.3 µM (inactive) |  |  | 24.3 µM (inactive) |  | 30.9 µM (inactive)
5 | NC(=S)N/N=C/c1nccc2ccccc12 | 0.361 µM (active) | 1.12 µM (active) | 1.21 µM (inactive) |  | 0.375 µM (active) |  | 0.918 µM (active) |  | 0.272 µM (active)
6 | COc1cc([C@@H]2c3cc4c(cc3[C@@H](NC(=O)c3cccc(C#N)c3)C3COC(=O)[C@@H]32)OCO4)cc(OC)c1O (stereo partly specified) |  | 2 µM (inactive) | > 100 µM (inactive) | 9.33 µM (inactive) | 1.63 µM (inactive) | 1.56 µM (inactive) |  |  | 0.0847 µM (active)
7 | COc1cc(Nc2nc3ccccc3nc2-c2cccs2)cc(OC)c1OC |  | 23.7 µM (inactive) | > 100 µM (inactive) | 90.6 µM (inactive) | 36.1 µM (inactive) |  | 40.5 µM (inactive) | 19.2 µM (inactive) | 29.2 µM (inactive)
8 | C/C(=N\NC(N)=S)c1ccc(C)c(C)c1 | 16.6 µM (inactive) | 30.9 µM (inactive) | 30.6 µM (inactive) | > 100 µM (inactive) | 44.7 µM (inactive) | 75.3 µM (inactive) | 35.7 µM (inactive) | 19.4 µM (inactive) | > 100 µM (inactive)
9 | COc1ccc(/C(=N\NC(=O)C(N)=O)C(c2ccc(OC)cc2)C2(O)C(=O)Nc3c(Cl)cccc32)cc1 (stereo unspecified) | > 100 µM (inactive) | > 100 µM (inactive) | > 100 µM (inactive) | > 100 µM (inactive) | > 100 µM (inactive) |  | > 100 µM (inactive) | > 100 µM (inactive) | 
10 | CC1=Nc2ccccc2SC(c2c(Cl)cccc2Cl)C1 (stereo unspecified) | 1.52 µM (inactive) | 0.331 µM (active) | 3.51 µM (inactive) | 3.31 µM (inactive) | 1.59 µM (inactive) |  | 1.16 µM (inactive) | 1.8 µM (inactive) | 0.792 µM (active)
11 | Cc1cc(O)nc(NNC(C#N)c2ccco2)n1 (stereo unspecified) | > 100 µM (inactive) | > 100 µM (inactive) | > 100 µM (inactive) | > 100 µM (inactive) | > 100 µM (inactive) |  | > 100 µM (inactive) |  | > 100 µM (inactive)
12 | CC(C)N(C(=O)C12CC3CC(CC(C3)C1)C2)C(C)C | > 50 µM (inactive) | > 50 µM (inactive) | > 50 µM (inactive) | > 50 µM (inactive) | > 50 µM (inactive) |  | > 50 µM (inactive) |  | > 50 µM (inactive)
13 | CC(=O)Oc1cc(OC(C)=O)c(OC(C)=O)c2c1CC1C(=O)C3(CCc4ccccc43)C(=O)C1C2 (stereo unspecified) | 11.7 µM (inactive) | 14.2 µM (inactive) | 28.5 µM (inactive) | 23.1 µM (inactive) | 22.8 µM (inactive) |  | 15.7 µM (inactive) | 14.7 µM (inactive) | 18.1 µM (inactive)
14 | O=C(O)CCCc1cc2c(s1)-c1cccc3cccc-2c13 |  | 39 µM (inactive) |  | 27.6 µM (inactive) | 52.2 µM (inactive) |  |  | 36.6 µM (inactive) | 37.8 µM (inactive)
15 | Cc1cc(O)nc(NNC(C#N)c2cccc([N+](=O)[O-])c2)n1 (stereo unspecified) | > 100 µM (inactive) | > 100 µM (inactive) | > 100 µM (inactive) | > 100 µM (inactive) | > 100 µM (inactive) |  | > 100 µM (inactive) |  | > 100 µM (inactive)
16 | CN(C)C(=S)/N=c1\ssc(=S)n1Cc1ccccc1 | 0.201 µM (active) | 0.348 µM (active) | 2.22 µM (inactive) | 0.8 µM (active) | 0.195 µM (active) |  | 0.318 µM (active) | 0.21 µM (active) | 0.25 µM (active)
17 | Cc1ccc(CC(C)N)cc1 (stereo unspecified) | > 100 µM (inactive) | > 100 µM (inactive) | > 100 µM (inactive) | > 100 µM (inactive) | > 100 µM (inactive) | > 100 µM (inactive) |  |  | > 100 µM (inactive)
18 | CC(C)(c1ccc(Oc2ccc(C#N)c(C#N)c2)cc1)c1ccc(Oc2ccc(C#N)c(C#N)c2)cc1 | > 10 µM (inactive) | > 10 µM (inactive) | > 10 µM (inactive) | > 10 µM (inactive) | > 10 µM (inactive) | > 10 µM (inactive) | > 10 µM (inactive) | > 10 µM (inactive) | 
19 | O=C1C=C(Nc2cc(Cl)ccc2Cl)c2ccccc2C1=O | 25.5 µM (inactive) | 45.3 µM (inactive) | 22.6 µM (inactive) | > 100 µM (inactive) | > 100 µM (inactive) | > 100 µM (inactive) | 15.7 µM (inactive) |  | 21.3 µM (inactive)
20 | C=CC/N=C1\N=C(C)C(C(=O)OCC)S1 (stereo unspecified) | > 100 µM (inactive) | > 100 µM (inactive) | > 100 µM (inactive) | > 100 µM (inactive) | > 100 µM (inactive) | > 100 µM (inactive) |  | > 100 µM (inactive) | > 100 µM (inactive)
21 | C[Si]1(C)C(c2ccccc2)=CC2C(c3ccccc3)(c3ccccc3)OC21c1ccccc1 (stereo unspecified) | 97.9 µM (inactive) | > 100 µM (inactive) | > 100 µM (inactive) |  | 92.9 µM (inactive) | > 100 µM (inactive) | > 100 µM (inactive) | > 100 µM (inactive) | > 100 µM (inactive)
22 | CC/C(CC(=O)CCC(=O)Nc1ccccc1[N+](=O)[O-])=N/NC(=O)C[n+]1ccccc1 |  |  | > 100 µM (inactive) | > 100 µM (inactive) | > 100 µM (inactive) | > 100 µM (inactive) | > 100 µM (inactive) |  | > 100 µM (inactive)
23 | CN(Cc1ccccc1)C1(N(C)Cc2ccccc2)CC1 | > 100 µM (inactive) | > 100 µM (inactive) | > 100 µM (inactive) | > 100 µM (inactive) | > 100 µM (inactive) |  | > 100 µM (inactive) | > 100 µM (inactive) | > 100 µM (inactive)
24 | COC12C=CC(CC1)c1c(O)ccc(O)c12 (stereo unspecified) | 47.1 µM (inactive) | 50.4 µM (inactive) | > 100 µM (inactive) | 49.2 µM (inactive) | 82.8 µM (inactive) |  | 22.5 µM (inactive) | 19.7 µM (inactive) | 46 µM (inactive)
25 | CCOC1c2cc(C(C)C)c(O)c(O)c2[C@@]23CCCC(C)(C)C2C1OC3=O (stereo partly specified) | 62.4 µM (inactive) | 61.7 µM (inactive) |  | > 100 µM (inactive) | > 100 µM (inactive) |  | > 100 µM (inactive) |  | > 100 µM (inactive)
26 | C/C(=C(/C)c1cc[n+](C)cc1)c1cc[n+](C)cc1 | 16.2 µM (inactive) | 39.9 µM (inactive) | > 75 µM (inactive) | > 75 µM (inactive) | > 75 µM (inactive) |  |  |  | 36.1 µM (inactive)
27 | COc1ccc2nc3ccccc3c(NCCCCCCN(CCCl)CCCl)c2c1 | 0.155 µM (active) | 0.109 µM (active) |  | 0.223 µM (active) | 0.0776 µM (active) | 0.104 µM (active) | 0.132 µM (active) | 0.136 µM (active) | 0.0328 µM (active)
